Counter-ions that a name gives are not always drawn. Like-named read-outs stand apart in the source and are kept apart here.
Legend:
[1] = test system: clot formation on silk thread in A-V shunt; assay: Multiple extracorporeal (A-V) shunt model in rats utilizing oral dosing; format: in vivo; settings: rat, read-out: ED50 value (dose that reduced the clot size by 50%)
Protocol: The compounds of Example 10 and 143 were evaluated in a multichamber A-V shunt model in rats. The A-V shunt model is one of the most common and generally used systems to evaluate antithrombotic compounds: Smith, J. R. and White, A. M. Br. J. Pharmacol., 77: 29-38 (1982). In this model a localized clot made up of primarily fibrin with some platelet and macrophage involvement (Shand, R. A. and Smith, J. R. and Wallis, R. B. Thromb. Res., 36: 223-232 (1984)), is formed on an artificial thrombogenic surface (typically a segment of silk or cotton thread) contained in a sialstic chamber which is part of an exteriorized shunt between the carotid artery and jugular vein. The procedure described in this Example is a modified A-V shunt model that allows for oral dosing of test agents and subsequent evaluation of efficacy over a two to three hour window in time.
Briefly, male Harlan Sprague Dawley rats (420-450 g) were acclimated at least 72 hours prior to use. The animals were fasted for 12 hours prior to surgery with free access to water. Unanesthetized animals were grouped into three or four dosage groups (six or seven animals per group) and administered test agents orally via gavage needle, at doses of 1.0, 3.0, 10 and 50 mg/kg for the compound of Example 10, and 3.0, 10 and 30 mg/kg for the Compound of Example 143. Immediately after oral dosing, animals were anesthetized with sodium pentobarbital (Nembutal) given intraperitoneally at a dose of 50 mg/kg body weight, and placed on a isothermal pad to maintain body temperature. The level of anesthesia was monitored every 15 minutes by neuro-response to a tail pinch, respiration and core temperature. The desired depth of surgical anesthesia was maintained by administering subsequent doses (5 mg/kg) intravenously. The left femoral artery was catheterized using standard procedures for blood pressure monitoring and blood sampling, with polyethylene tubing (PE50). The left femoral vein was catheterized with PE50 tubing for delivery of anethestic.
The exteriorized shunts were assembled by connecting two pieces of saline filled 12.5 cm PE90 tubing with a 6 cm piece of PE160 tubing containing a 6 cm piece of silk suture size 3 and clamped with hemostats. A small 0.5 cm portion of the silk thread protrudes from the junction of the chamber with the shunt. The left jugular vein and right carotid artery were catheterized with the ends of the PE90 shunt. The shunt was unclamped and blood allowed to flow from the carotid artery, through the chamber, and exit the shunt via the jugular vein. After 15 minutes, both sides of the chamber were clamped and the suture containing the clot removed following detachment of the arterial end of the chamber. The clot was immediately weighed and recorded. This procedure takes place at predetermined intervals (60, 90, 120, and 150 minutes after oral dosing) to allow assessment of efficacy over a large window in time. Four shunts were placed with flow initiated at 45, 75, 105, and 135 minutes after oral compound administration. Clot weight from the four shunts was the primary endpoint of the protocol. Blood pressure, heart rate core temperature and respiration were monitored continuously. Following termination of the experiment the animals were euthanized with a 120 mg/kg dose of Nembutal. One experiment was performed per animal.
ED50 values were calculated at 60, 90, 120, and 150 minutes after oral dosing of test compound. ED50 is that dose that reduced the clot size by 50%. […]

[2] = test system: pooled normal human plasma; assay: Ex vivo anticoagulant effect: activated partial thromboplastin time (APTT) in plasma; format: biochemical
Protocol: FIG. 6 depicts the anticoagulant effect of [3-[(benzylsulfonyl)amino]-2-oxo-1,2-dihydropyridyl] acetyl-L-arginal measured in citrated human plasma, closed circles (l), using the activated partial thromboplastin time (APTT) assay. […] The data is the mean of two independent determinations.
The ex vivo anticoagulant effect of [3-[(benzylsulfonyl)amino]-2-oxo-1,2-dihydropyridyl]acetyl-L-argininal was determined by measuring the prolongation of the activated partial thromboplastin time (APTT) over a broad concentration range of the added inhibitor, using pooled normal human plasma. Fresh frozen citrated pooled normal human plasma was obtained from George King Biomedical, Overland Park, Kans. Measurements of APTT were made using the Coag-A-Mate RA4 automated coagulometer (General Diagnostics, Organon Technica, Oklahoma City, Okla.) using the Platelin® L reagent (Organon Technica, Durham, N.C.) as the initiator of clotting according to the manufacturer's instructions. The assay was conducted by making a series of dilutions of the test compounds in rapidly thawed plasma followed by adding 200 microliters to the wells of the assay carousel.

Human rt-PA (Activase) = molecular target: T1, Human rt-PA (Activase) (Homo sapiens, UniProt P00750); assay: biochemical; settings: 30 minute incubation; 1.0 nM enzyme; read-out: IC50 rt-PA (Table 2)
T1 construct: purchased Genentech Inc
T1 sequence (P00750 36-562): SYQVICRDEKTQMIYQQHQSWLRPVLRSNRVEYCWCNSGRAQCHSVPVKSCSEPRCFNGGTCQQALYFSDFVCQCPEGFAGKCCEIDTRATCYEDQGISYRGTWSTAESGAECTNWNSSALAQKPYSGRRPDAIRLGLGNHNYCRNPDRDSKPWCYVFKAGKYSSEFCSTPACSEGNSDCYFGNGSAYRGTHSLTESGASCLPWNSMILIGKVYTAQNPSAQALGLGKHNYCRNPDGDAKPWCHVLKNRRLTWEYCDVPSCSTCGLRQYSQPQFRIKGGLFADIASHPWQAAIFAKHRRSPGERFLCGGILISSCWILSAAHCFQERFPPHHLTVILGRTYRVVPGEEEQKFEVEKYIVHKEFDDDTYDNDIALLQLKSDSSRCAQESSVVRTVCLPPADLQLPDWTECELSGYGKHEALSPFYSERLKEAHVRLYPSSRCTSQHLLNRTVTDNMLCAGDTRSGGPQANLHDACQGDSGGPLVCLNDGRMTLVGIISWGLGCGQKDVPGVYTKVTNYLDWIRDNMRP
Protocol: The ability of compounds of the present invention to act as a selective inhibitor of thrombin catalytic activity was assessed by determining the concentration of compound which inhibited the activity of this enzyme by 50%, (IC50), and comparing this value to that determined for all or some of the following related serine proteases: recombinant tissue plasminogen activator (rt-PA), plasmin, activated protein C, chymotrypsin, factor Xa and trypsin.
The buffer used for all assays was HBSA (10 mM HEPES, pH 7.5, 150 mM sodium chloride, 0.1% bovine serum albumin).
The assay for IC50 determinations was conducted by combining in appropriate wells of a Corning microtiter plate, 50 microliters of HBSA, 50 microliters of the test compound at a specified concentration (covering a broad concentration range) diluted in HBSA (or HBSA alone for VO (uninhibited velocity) measurement), and 50 microliters of the enzyme diluted in HBSA. Following a 30 minute incubation at ambient temperature, 50 microliters of the substrate at the concentrations specified below were added to the wells, yielding a final total volume of 200 microliters. The initial velocity of chromogenic substrate hydrolysis was measured by the change in absorbance at 405 nm using a Thermo Max® Kinetic Microplate Reader over a 5 minute period in which less than 5% of the added substrate was utilized. The concentration of added inhibitor which caused a 50% decrease in the initial rate of hydrolysis was defined as the IC50 value.
Recombinant Tissue Plasminogen Activator (rt-PA) Assay
rt-PA catalytic activity was determined using the substrate, Pefachrome t-PA (CH3SO2-D-hexahydrotyrosine-glycyl-L-arginine-p-nitroaniline, obtained from Pentapharm Ltd.). The substrate was made up in deionized water followed by dilution in HBSA prior to the assay in which the final concentration was 500 micromolar (about 3-times Km). Human rt-PA (Activase®) was obtained from Genentech Inc. The enzyme was reconstituted in deionized water and diluted into HBSA prior to the assay in which the final concentration was 1.0 nM.

N=C(N)NCCC[C@@H](C=O)NC(=O)Cn1cccc(NS(=O)(=O)Cc2ccccc2)c1=O [Example 10, [3-[(benzylsulfonyl)amino]-2-oxo-1,2-dihydropyridyl]acetyl-L-argininal, trifluoroacetate salt]
ED50 ([1]; 1 h, 60 min after oral dose): < 1 mg/kg
ED50 ([1]; 1.5 h, 90 min after oral dose): 2.9 mg/kg
ED50 ([1]; 2 h, 120 min after oral dose): 2.9 mg/kg
ED50 ([1]; 150 min after oral dose): 8.2 mg/kg
concentration which caused a doubling of the control clotting time (APTT) ([2]; citrated human plasma, control clotting time 29 seconds, mean of two independent determinations): 7.7 µM
prolongation of the APTT ([2]; pooled normal human plasma, broad concentration range): prolonged the APTT in a dose dependent manner
IC50 (Human rt-PA (Activase)): > 2500 nM

From patent US6342504B1, “Aromatic heterocyclic derivatives as enzyme inhibitors” (priority 1994, dated 2002)
